Legend:
[1] = test system: C-telopeptide of rat collagen I in serum; assay: Serum RatLaps ELISA, C-telopeptide of type I collagen, orchidectomy model (Example 3); assay type: in vivo; details: orchidectomized rats, 15 and 30 days; Toremifene 5 mg/kg/day, 17-β-estradiol 0.5 mg/kg/day s.c.; FIG. 1
Method: Male Sprague-Dawley rats (Harlan Sprague Dawley) were placed on study at 14-weeks of age. They were randomized and divided into five treatment groups: vehicle only (placebo, or P) after sham operation, vehicle only after orchidectomy (Orx), Toremifene (5 mg/kg/day) after sham-operation, and Toremifene after orchidectomy, and 17-β-estradiol (0.5 mg/kg/day) after orchidectomy. Test articles were delivered subcutaneously by Alzet pumps. Pumps were re-implanted every 30 days until the end of the study. Five to six animals from each group were sacrificed after 60 and 120 days of treatment, and femurs were harvested, stripped of soft tissue and muscle, and stored individually in polypropylene vials at −80° C. until analysis of bone density and mechanical strength testing. Additionally, serum was collected on days 15, 30, 60, 90 and 120, to measure markers of bone metabolism and to perform serum chemistry. […]
The assay was performed in duplicates, each 20 ul of serum as well as standards and control. […] After washing the strips 100 ul of the Chromogenic Substrate Solution was added to each well, and after 15 min the reaction was stopped and the absorbance was measured at 450 nm. The means of the duplicate absorbance determination were calculated, and a standard curve was constructed using 4-parametric logistic curve fit. Sample RatLaps concentrations were determined by interpolation.

[2] = test system: orchidectomized rats (ORX); assay: Compression test of the vertebral body (L5) (Example 4); assay type: in vivo, rat; details: for Elastic Modulus / Energy / Maximum Load / Stiffness / Toughness / Ultimate Strength: 12 weeks, vertebral body compression, mean
Method: (§1) Eight month-old male Sprague Dawley rats were either sham-operated (SHAM) or orchidectomized (ORX). Treatment began immediately following surgery. The treatment groups were as described in Table 5. Bone strength was evaluated using a compression test at the vertebral body, a three point bending test at the femoral shaft, a compression test at the distal femur and a cantilever compression test of the femoral neck. Prior to mechanical testing, all samples were thawed in cold saline and carefully cleaned of any remaining adherent soft tissue.

[3] = test system: RatLaps (CTX) in rat serum; assay: CTX (RatLaps) in rat serum (Example 4); assay type: in vivo; details: Orx rats
Method: The assay was performed in duplicates, each 20 ul of serum as well as standards and control. Briefly, 100 ul of Biotinylated RatLaps Antigen was incubated 30 min in each well, strips were washed and 20 ul of Standard, Control and unknown samples were added to appropriate wells, followed by 100 ul of primary antibody (polyclonal Ab raised against a synthetic peptide EKSQDGGR specific for a part of the C-terminal telopeptide alpha 1 chain of rat type I collagen). After overnight incubation at 4 C., the wells were washed and 100 ul of Peroxidase conjugated Goat anti-Rabbit IgG Antibody was added to each well and incubated 60 min. After washing the strips 100 ul of the Chromogenic Substrate Solution was added to each well, and after 15 min the reaction was stopped and the absorbance was measured at 450 nm. The means of the duplicate absorbance determination were calculated, and a standard curve was constructed using 4-parametric logistic curve fit. Sample RatLaps concentrations were determined by interpolation.
Eight month-old male Sprague Dawley rats were either sham-operated (SHAM) or orchidectomized (ORX). Treatment began immediately following surgery. The treatment groups were as described in Table 5.

[4] = test system: orchidectomized rats (ORX); assay: Three point bending test of the femoral shaft (Example 4); assay type: in vivo, rat; details: 12 weeks, mean
Method: as §1

[5] = test system: men with high-grade prostatic intraepithelial neoplasia (HGPIN); assay: Phase IIa clinical trial: bone turnover markers (serum calcium, alkaline phosphatase) in men treated with Toremifene; assay type: in vivo, human; details: 18 men with HGPIN, 60 mg/d Toremifene
Method: In a Phase IIa clinical trial to determine whether Toremifene has chemopreventive activity against prostate cancer, 18 men with high-grade prostatic intraepithelial neoplasia (HGPIN) were treated with 60 mg/d of Toremifene for 4 months.

[6] = week 12, Toremifene 5 and 10 mg/kg/d, Estradiol 0.2 mg/kg/d
[7] = 28 days, E 0.2 mg/kg/d, 10 mg Tor
[8] = 42 days, E 0.2 mg/kg/d, 10 mg-Tor
[9] = Toremifene 5 mg/kg/d, Estradiol 0.2 mg/kg/d

C[C@]12CC[C@@H]3c4ccc(O)cc4CC[C@H]3[C@@H]1CC[C@@H]2O [17-β-Estradiol]
C-telopeptide levels in serum [1]: reduced the C-telopeptide levels to or below control values
Elastic Modulus ([2]; 0.2 mg/kg/d): 589.03 MPa
Energy ([2]; 0.2 mg/kg/d): 43.60 mJ
Maximum Load ([2]; 0.2 mg/kg/d): 298.04 N
Stiffness ([2]; 0.2 mg/kg/d): 1648.17 N/mm
Toughness ([2]; 0.2 mg/kg/d): 0.94 MJ/m^3
Ultimate Strength ([2]; 0.2 mg/kg/d): 25.75 N/mm^2
ORX-induced decreases in bone strength, compression test of the vertebral body [2, 6]: prevented loss of bone strength due to ORX
CTX levels in serum ([3]; 10 days): Neither E nor Tor had any effect on CTX
CTX levels in serum [3, 7]: reduced the CTX levels
CTX levels in serum [3, 8]: CTX levels did not change further
Elastic Modulus [4, 9]: 5149.41 MPa
Energy [4, 9]: 98.61 mJ
Maximum Load [4, 9]: 287.22 N
Stiffness [4, 9]: 986.71 N/mm
Toughness [4, 9]: 6.85 MJ/m^3
Ultimate Strength [4, 9]: 172.51 N/mm^2

CN(C)CCOc1ccc(/C(=C(/CCCl)c2ccccc2)c2ccccc2)cc1 [Toremifene]
alkaline phosphatase, change compared to baseline (mean) ([5]; Day 60, p<0.001): −18.7
alkaline phosphatase, change compared to baseline (mean) ([5]; Day 120, p<0.001): −21.0
serum calcium, reduction from baseline (mean) ([5]; Day 120, p=0.005): −0.12
C-telopeptide levels in serum [1]: reduced the C-telopeptide levels to or below control values
Elastic Modulus ([2]; 5 mg/kg/d): 446.38 MPa
Energy ([2]; 5 mg/kg/d): 36.60 mJ
Maximum Load ([2]; 5 mg/kg/d): 238.19 N
Stiffness ([2]; 5 mg/kg/d): 1391.70 N/mm
Toughness ([2]; 5 mg/kg/d): 0.72 MJ/m^3
Ultimate Strength ([2]; 5 mg/kg/d): 19.08 N/mm^2
Elastic Modulus ([2]; 10 mg/kg/d): 438.64 MPa
Energy ([2]; 10 mg/kg/d): 27.02 mJ
Maximum Load ([2]; 10 mg/kg/d): 206.48 N
Stiffness ([2]; 10 mg/kg/d): 1255.47 N/mm
Toughness ([2]; 10 mg/kg/d): 0.59 MJ/m^3
Ultimate Strength ([2]; 10 mg/kg/d): 18.12 N/mm^2
ORX-induced decreases in bone strength, compression test of the vertebral body [2, 6]: did not prevent these changes
ORX-induced decreases in bone strength, compression test of the vertebral body ([2]; week 12, Toremifene at the 10 mg/kg/d dose): may have worsened the changes
CTX levels in serum ([3]; 10 days): Neither E nor Tor had any effect on CTX
CTX levels in serum [3, 7]: reduced the CTX levels
CTX levels in serum [3, 8]: significantly lower CTX levels
effect on CTX ([3]; 5 mg Tor): not uniform and cannot be interpreted
Elastic Modulus [4, 9]: 4505.90 MPa
Energy [4, 9]: 83.40 mJ
Maximum Load [4, 9]: 263.54 N
Stiffness [4, 9]: 944.78 N/mm
Toughness [4, 9]: 5.67 MJ/m^3
Ultimate Strength [4, 9]: 150.45 N/mm^2
Elastic Modulus ([4]; Toremifene 10 mg/kg/d): 4557.46 MPa
Energy ([4]; Toremifene 10 mg/kg/d): 88.58 mJ
Maximum Load ([4]; Toremifene 10 mg/kg/d): 272.56 N
Stiffness ([4]; Toremifene 10 mg/kg/d): 910.47 N/mm
Toughness ([4]; Toremifene 10 mg/kg/d): 6.16 MJ/m^3
Ultimate Strength ([4]; Toremifene 10 mg/kg/d): 161.23 N/mm^2

Source: patent US7524866B2, “Prevention and treatment of androgen—deprivation induced osteoporosis” (GTx, Inc., priority 2001, dated 2009)
